This is an account of results in patent publication US12414960B2, “Analogues of oleuropein and oleacein and uses thereof” (Attica Sciences Ltd., priority 2020, dated 2025).

Data set [1] concerns the target ACLY (Homo sapiens, UniProt P53396). Particulars: description of the Tocris compound; read-out: IC50 as ACLY inhibitor; cited from earlier work.
In data set [2] the test system is TNF-α. The data set is described as follows: ELISA of TNF-α in PMA/LPS-treated THP-1 cells. The format is cell-based, human. The following applies: THP-1, PMA then LPS 100 ng/ml 24 hours, 5 uM compound added 2 hours before LPS. Here is the method:
(§1) Human monocytes (THP-1, ATCC) were cultured in RPMI 1640 media supplemented with HEPES buffer (10 mM), sodium pyruvate (1 mM), glucose (4.5 g/L), fetal bovine serum (10%), penicillin (100 U/mL), streptomycin (100 μg/mL), and 2-mercaptoethanol (0.05 mM). THP-1 cells were treated with PMA (100 ng/ml) for 48 hours and then washed and rested for 24 hours in PMA-free media. These cells were treated with LPS (100 ng/ml) for 24 hours in the presence or absence of 5 uM of […] compounds (added 2 hours before LPS). Cell culture supernatants were collected and IL-1β (cat. No DLB50, R&D Systems), TNF-α (cat. no. DTA00D, R&D Systems) and IL-6 (cat. No D6050, R&D Systems) protein levels were evaluated by ELISA assay.
Background: ELISA stands for enzyme-linked immunosorbent assay.

Data set [3] concerns IL-1β. The data set is described as follows: ELISA of IL-1β in PMA/LPS-treated THP-1 cells. Format: cell-based, human. The following applies: THP-1, PMA then LPS 100 ng/ml 24 hours, 5 uM compound added 2 hours before LPS. The procedure: as §1
Data set [4] has as its system IL-6. Briefly: ELISA of IL-6 in PMA/LPS-treated THP-1 cells. The following applies: THP-1, PMA then LPS 100 ng/ml 24 hours, 5 uM compound added 2 hours before LPS. Format: cell-based, human. The procedure:
as §1

The subject of data set [5] is MCF-7 ER+ breast cancer cells. The data set is described as follows: XTT cell growth assay, MCF-7 ER+. Particulars: NS = not statistically significant. The format is cell-based, human. Put shortly:
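MCF-7 ER+ cells grown 24 h in DMEM, then given 5, 10 or 50 μM compound in serum-free DMEM for 24 h. XTT reagent added for 4 h. Absorbance read at 450 nm with 630 nm reference; serum-free DMEM alone as negative control.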
A general note: Tetrazolium dyes change colour on reduction, which living cells bring about.

Data set [6] is described as follows: Deoxyribose degradation assay (hydroxyl radical scavenging). Format: biochemical. The following applies: NS = not statistically significant. The method in brief: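 Hydroxyl radicals from Fenton's reaction degrade 2-deoxyribose. Scavenging is measured as inhibition of this oxidation, read spectrophotometrically as pink chromogen absorbance at 532 nm.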
For data set [7], the system named is pACLY (S455). The data set is described as follows: ELISA of pACLY (S455) / ACLY enzymatic activity in PANC-1 cells. The following applies: 5 μM. Format: cell-based, human. Here is the method:
ELISA assay was used to evaluate the effect of GS compounds on protein activity levels in PANC-1 cancer cells. PANC-1 cells were serum-starved overnight and then treated with rIGF1 (100 ng/mL) for 24 hours, with or without GS27 (5 μM). The levels of the following proteins were evaluated by ELISA assay: a) p70 S6 (T389) (cat no. 54164C, Cell Signaling); b) pAKT (S473), (cat no. 80895, Cell Signaling); c) pACLY (S455), (cat no. okag1672, Avivasysbio); d) pAMPK (T172) (cat no. 7959C, Cell Signaling) and e) p65/NFKB (S536), (cat no. 7173, Cell Signaling).
PANC-1 is a human pancreatic ductal adenocarcinoma cell line derived from the carcinoma of a person.
The molecular mechanism of action of GS27, a compound that has exerted potent anti-cancer activity in different cancer cell lines including pancreatic cancer cells, was investigated. Oleacein has been implicated to have anti-inflammatory and metabolic effects, thus the potential effects of GS27 in different metabolic and inflammatory pathways were evaluated. Specifically, the protein levels of p70 S6 (T389), pAKT (S473), pACLY (S455), pAMPK (T172) and p65/NFKB (S536) were evaluated by ELISA assay in PANC-1 pancreatic cancer cells treated with 5 μM GS27. GS27 reduced p70 S6 and AKT phosphorylation levels, while it increased AMPK phosphorylation.
The effects of different GS compounds on ACLY enzymatic activity were evaluated by ELISA assay in PANC-1 pancreatic cancer cells. […] This finding is unexpected, since GS21 has a very similar structure with GS27, with the only difference being the presence of an oxygen atom in ester GS21 instead of a sulfur atom in thioester GS27.

The conditions of data set [8]: after olive oil consumption, literature; cited from earlier work.
Data set [9] deals with HepG2 liver cancer tumor. The data set is described as follows: HepG2 xenograft mouse model. Format: in vivo, nu/nu mice. Particulars: 20 mg/kg i.p. every 5 days, until 20 days post-treatment. The procedure:
The effect of GS27 on liver cancer tumor growth in mice was evaluated in a HepG2 xenograft mouse model. HepG2 is a human liver cancer cell line, obtained from ATCC (cat. No HB-8065). Since hepatocellular carcinoma is often treated with the chemotherapeutic agent doxorubicin and embolization, results were compared to those obtained with doxorubicin.
Xenograft tumors were generated by injecting HepG2 liver cancer cells (2.5×10^6) into the right flank of female nu/nu mice (Charles River Laboratories). All mice developed tumors in 10 days with size of approximately 100 mm3. For each experiment, mice were randomly distributed into equal groups (4 mice per group) that were untreated, or treated by intraperitoneal injections every 5 days with 20 mg/kg GS27 or doxorubicin. Tumor volume (average, SD) was evaluated until 20 days post-treatment.

The test system of data set [10] is LNCaP prostate cancer cells. The following applies: literature; cited from earlier work.

Chain of ACLY (P53396 whole entry): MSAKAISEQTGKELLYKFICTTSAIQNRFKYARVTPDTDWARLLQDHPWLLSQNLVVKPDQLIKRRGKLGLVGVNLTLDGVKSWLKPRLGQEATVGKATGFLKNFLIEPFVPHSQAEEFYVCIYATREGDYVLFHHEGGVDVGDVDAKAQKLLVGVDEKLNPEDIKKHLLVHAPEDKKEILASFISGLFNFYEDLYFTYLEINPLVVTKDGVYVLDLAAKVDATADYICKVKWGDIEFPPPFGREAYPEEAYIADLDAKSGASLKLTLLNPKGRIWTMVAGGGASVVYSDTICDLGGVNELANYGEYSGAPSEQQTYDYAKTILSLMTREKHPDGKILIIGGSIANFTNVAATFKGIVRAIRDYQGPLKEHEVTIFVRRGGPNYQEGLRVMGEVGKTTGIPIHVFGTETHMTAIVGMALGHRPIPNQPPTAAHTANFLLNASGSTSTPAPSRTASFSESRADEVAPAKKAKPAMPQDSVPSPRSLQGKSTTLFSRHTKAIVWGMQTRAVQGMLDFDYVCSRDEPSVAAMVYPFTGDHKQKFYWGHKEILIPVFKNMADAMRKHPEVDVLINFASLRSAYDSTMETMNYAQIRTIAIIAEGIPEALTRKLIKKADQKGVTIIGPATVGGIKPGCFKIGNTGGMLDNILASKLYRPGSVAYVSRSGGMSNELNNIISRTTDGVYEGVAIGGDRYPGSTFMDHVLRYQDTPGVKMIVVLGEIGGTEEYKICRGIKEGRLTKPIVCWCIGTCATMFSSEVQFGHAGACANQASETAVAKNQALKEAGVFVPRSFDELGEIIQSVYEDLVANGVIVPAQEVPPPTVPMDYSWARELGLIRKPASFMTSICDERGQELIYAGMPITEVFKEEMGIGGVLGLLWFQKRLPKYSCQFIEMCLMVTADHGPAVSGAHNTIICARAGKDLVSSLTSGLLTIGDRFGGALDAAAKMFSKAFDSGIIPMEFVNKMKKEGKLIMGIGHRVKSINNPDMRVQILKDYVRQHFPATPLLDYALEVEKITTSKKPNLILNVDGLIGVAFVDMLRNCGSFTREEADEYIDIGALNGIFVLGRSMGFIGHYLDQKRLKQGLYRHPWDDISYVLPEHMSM

A word on the IC50: it is the concentration that gives 50% inhibition. With `COc1ccc(-c2ccccc2)cc1NS(=O)(=O)c1cc(Cl)cc(Cl)c1O` [BMS303141], the concentration for half-maximal inhibition (IC50) in [1] was 0.13 µM.

For orientation: inhibition means the drop in the measured response relative to a control, in per cent. For `C/C=C(/C=O)[C@@H](CC=O)CC(=O)OCc1cc2ccccc2[nH]1` [GS25, (3S,4E)-4-formyl-3-(2-oxoethyl)-4-hexenoic acid (1H-indol-2-yl)methyl ester], in data set [2], the TNF-α protein levels result was “better effect on the suppression”. Besides, the IL-1β protein levels entry in data set [3] was “reducing substantially”. Also, the IL-6 protein levels entry in data set [4] was “effective for reducing”. In [5] (50 uM, 24 h), the “Effectiveness to suppress MCF7 cell growth (cell growth inhibition)” value was “best efficacy”. Besides, the inhibition at 50 µM in data set [5] (Homo sapiens, MCF7, 24 h, read-out: Effectiveness to suppress MCF7 cell growth (cell growth inhibition)) is 88.4%. Besides, the “Deoxyribose Degradation Assay IC50” value in data set [6] was 16.2 μg extract/mL. In data set [7], the “ACLY enzymatic activity (ELISA)” value was “small effect”.

Take `OCCc1ccc(O)c(O)c1` [Hydroxytyrosol]: the “time of peak plasma levels after ingestion” value in data set [8] is listed as 1 h.

With `COc1cccc2c1C(=O)c1c(O)c3c(c(O)c1C2=O)C[C@@](O)(C(=O)CO)C[C@@H]3O[C@H]1C[C@H](N)[C@H](O)[C@H](C)O1` [doxorubicin, reference compound], the “reduction in the tumor size, HepG2 liver cancer” value in data set [9] was determined as 13%.

As to `CNC(=O)c1ccc(N2C(=S)N(c3ccc(C#N)c(C(F)(F)F)c3)C(=O)C2(C)C)cc1F` [enzalutamide], the “concentration found to reduce LNCaP prostate cancer cell growth” value in data set [10] was 10 µM.

With `OCCc1ccc(O)cc1` [tyrosol], in data set [8], the “time of peak plasma levels after ingestion” value was 1 h.
